Where a name gives a salt, the structure may show the parent alone.
biological target: SSTR5 (Homo sapiens (Human), UniProt P35346); assay: SSTR5 binding assay; details: CHO-K1 membranes expressing cloned human SSTR5
Procedure: The receptor-ligand binding assays of all 5 subtype of SSTRs were performed with membranes isolated from Chinese hamster ovary (CHO)-K1 cells stably expressing the cloned human somatostatin receptors in 96-well format as previous reported.
The stable cell lines for SSTR1-SSTR5 were developed by stably transfecting with DNA for all five SSTRs using Lipofectamine. […] The assay buffer consisted of 50 mM TrisHCl (pH 7.8) with 1 mM EGTA, […] MgCl2, leupeptin (10 μg/mL), pepstatin (10 μg/mL), bacitracin (200 μg/mL), and aprotinin (0.5 μg/mL). CHO-K1 cell membranes, radiolabeled somatostatin, and unlabeled test compounds were resuspended or diluted in this assay buffer. Unlabeled test compounds were examined over a range of concentrations from 0.01 nM to 10,000 nM.
Compounds exemplified were tested in the SSTR5 binding assay.

SSTR5, sequence (P35346 whole entry): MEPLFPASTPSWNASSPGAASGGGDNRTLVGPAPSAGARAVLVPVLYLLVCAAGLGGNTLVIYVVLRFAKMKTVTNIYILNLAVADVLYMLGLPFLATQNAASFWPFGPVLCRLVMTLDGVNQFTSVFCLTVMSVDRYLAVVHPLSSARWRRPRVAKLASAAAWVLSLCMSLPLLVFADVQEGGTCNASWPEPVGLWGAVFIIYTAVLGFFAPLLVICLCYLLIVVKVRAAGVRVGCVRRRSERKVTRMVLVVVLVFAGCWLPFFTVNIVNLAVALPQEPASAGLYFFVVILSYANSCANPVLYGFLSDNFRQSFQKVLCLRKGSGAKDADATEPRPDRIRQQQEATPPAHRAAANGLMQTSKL

In order of falling IC50:
1. CCCn1nc(CN2CCC3(CC2)CN(c2ccc(C(=O)O)cc2)C(=O)O3)c2ccc(C#N)cc21 [Example 6-7, 4-{8-[(6-Cyano-1-propyl-1H-indazol-3-yl)methyl]-2-oxo-1-oxa-3,8-diazaspiro[4.5]dec-3-yl}benzoic acid, TFA salt]  1200 nM
2. CCCn1cc(-c2ccc(F)c(F)c2F)c(CN2CCC3(CC2)CN(c2ccc(C(=O)O)cc2)C(=O)O3)n1 [Example 2-6, 4-(2-Oxo-8-{[1-propyl-4-(2,3,4-trifluorophenyl)-1H-pyrazol-3-yl]methyl}-1-oxa-3,8-diazaspiro[4.5]dec-3-yl)benzoic acid, TFA salt]  281 nM
3. COc1ccc2c(CN3CCC4(CC3)CN(c3ccc(C(=O)O)cc3)C(=O)O4)nn(C3CC3)c2c1 [Example 6-12, 4-{8-[(1-Cyclopropyl-6-methoxy-1H-indazol-3-yl)methyl]-2-oxo-1-oxa-3,8-diazaspiro[4.5]dec-3-yl}benzoic acid, TFA salt]  216 nM
4. COc1c(-c2cn(C(C)C)nc2CN2CCC3(CC2)CN(c2ccc(C(=O)O)cc2)C(=O)O3)ccc(F)c1F [Example 2-5, 4-(8-{[4-(3,4-Difluoro-2-methoxyphenyl)-1-(propan-2-yl)-1H-pyrazol-3-yl]methyl}-2-oxo-1-oxa-3,8-diazaspiro[4.5]dec-3-yl)benzoic acid, TFA salt]  191 nM
5. CCCCn1nc(CN2CCC3(CC2)CN(c2ccc(C(=O)O)cc2)C(=O)O3)c2cc(F)ccc21 [Example 6-4, 4-{8-[(1-Butyl-5-fluoro-1H-indazol-3-yl)methyl]-2-oxo-1-oxa-3,8-diazaspiro[4.5]dec-3-yl}benzoic acid, TFA salt]  98.7 nM
6. CCOc1cc(C)nc2c(OCC)cc(CN3CCC4(CC3)CN(c3ccc(C(=O)O)cc3)C(=O)O4)cc12 [Example 5-4, 4-{8-[(4,8-Diethoxy-2-methylquinolin-6-yl)methyl]-2-oxo-1-oxa-3,8-diazaspiro[4.5]dec-3-yl}benzoic acid, TFA salt]  65.2 nM
7. CCOc1ccc(-c2ccc(F)c(F)c2)c(CN2CCCC3(CC2)CN(c2ccc(C(=O)O)cc2)C(=O)O3)c1 (stereo not shown) [Example 2-13, 4-{8-[(4-Ethoxy-3′,4′-difluorobiphenyl-2-yl)methyl]-2-oxo-1-oxa-3,8-diazaspiro[4.6]undec-3-yl}benzoic acid, TFA salt]  26.1 nM
8. CCOc1ccc(-c2ccc(F)c(F)c2F)c(CN2CCC3(CC2)CN(c2ccc(C(=O)O)cc2)C(=O)O3)n1 [Example 4-2, 4-(8-{[6-Ethoxy-3-(2,3,4-trifluorophenyl)pyridin-2-yl]methyl}-2-oxo-1-oxa-3,8-diazaspiro[4.5]dec-3-yl)benzoic acid, TFA salt]  13.2 nM
9. O=C(O)c1ccc(N2CC3(CCN(Cc4cn(CC(F)(F)F)nc4-c4ccc(F)c(F)c4F)CC3)OC2=O)cc1 [Example 1-41, 4-(2-Oxo-8-{[1-(2,2,2-trifluoroethyl)-3-(2,3,4-trifluorophenyl)-1H-pyrazol-4-yl]methyl}-1-oxa-3,8-diazaspiro[4.5]dec-3-yl)benzoic acid, TFA salt]  10.4 nM
10. O=C(O)c1ccc(N2CC3(CCN(Cc4cnn(C5CCCCC5)c4-c4cc(F)c(F)cc4F)CC3)OC2=O)cc1 [Example 2-8, 4-(8-{[1-Cyclohexyl-5-(2,4,5-trifluorophenyl)-1H-pyrazol-4-yl]methyl}-2-oxo-1-oxa-3,8-diazaspiro[4.5]dec-3-yl)benzoic acid, TFA salt]  10.4 nM
11. CCOc1cc(CN2CCC3(CC2)CN(c2ccc(C(C)(C)C(=O)O)cc2)C(=O)O3)cc(OCC)c1-c1ccc(F)cc1 [Example 3-6, 2-(4-{8-[(2,6-Diethoxy-4′-fluorobiphenyl-4-yl)methyl]-2-oxo-1-oxa-3,8-diazaspiro[4.5]dec-3-yl}phenyl)-2-methylpropanoic acid, TFA salt]  9.47 nM
12. Cc1cc(-c2ccc(C(F)(F)F)nc2)c(CN2CCC3(CC2)CN(c2ccc(C(=O)O)cc2)C(=O)O3)cc1Cl [Example 4-26, 4-(8-{5-Chloro-4-methyl-2-[6-(trifluoromethyl)pyridin-3-yl]benzyl}-2-oxo-1-oxa-3,8-diazaspiro[4.5]dec-3-yl)benzoic acid, TFA salt]  9.35 nM
13. CC(C)(C)n1cc(CN2CCC3(CC2)CN(c2ccc(C(=O)O)c(F)c2)C(=O)O3)c(-c2ccc(F)c(F)c2F)n1 [Example 1-42, 4-(8-{[1-tert-Butyl-3-(2,3,4-trifluorophenyl)-1H-pyrazol-4-yl]methyl}-2-oxo-1-oxa-3,8-diazaspiro[4.5]dec-3-yl)-2-fluorobenzoic acid, TFA salt]  4.68 nM
14. COc1ccc(-c2nn(C3CC3)cc2CN2CCC3(CC2)CN(c2ccc(C(=O)O)cc2)C(=O)O3)cc1 [Example 1-4, 4-(8-{[1-Cyclopropyl-3-(4-methoxyphenyl)-1,1-pyrazol-4-yl]methyl}-2-oxo-1-oxa-3,8-diazaspiro[4.5]dec-3-yl)benzoic acid, TFA salt]  4.59 nM
15. CC(C)(C)n1cc(CN2CCC3(CC2)CN(c2ccc(C(=O)O)cn2)C(=O)O3)c(-c2ccc(F)c(F)c2F)n1 [Example 1-43, 6-(8-{[1-tert-Butyl-3-(2,3,4-trifluorophenyl)-1H-pyrazol-4-yl]methyl}-2-oxo-1-oxa-3,8-diazaspiro[4.5]dec-3-yl)pyridine-3-carboxylic acid, TFA salt]  2.88 nM
16. O=C(O)c1ccc(N2CC3(CCN(Cc4cn(-c5ccc6ccccc6c5)nc4-c4ccc(F)c(F)c4F)CC3)OC2=O)cc1 [Example 1-26, 4-(8-{[1-(Naphthalen-2-yl)-3-(2,3,4-trifluorophenyl)-1H-pyrazol-4-yl]methyl}-2-oxo-1-oxa-3,8-diazaspiro[4.5]dec-3-yl)benzoic acid, TFA salt]  2.72 nM
17. CCCCn1cc(CN2CCC3(CC2)CN(c2ccc(C(=O)O)cc2)C(=O)O3)c(-c2ccc(F)c(F)c2F)n1 [Example 1-18, 4-(8-{[1-Butyl-3-(2,3,4-trifluorophenyl)-1H-pyrazol-4-yl]methyl}-2-oxo-1-oxa-3,8-diazaspiro[4.5]dec-3-yl)benzoic acid, TFA salt]  2.7 nM
18. CCOc1cc(CN2CCC3(CC2)CN(c2cc(C(=O)O)ccn2)C(=O)O3)cc(OCC)c1-c1ccc(F)cc1 [Example 3-17, 2-{8-[(2,6-Diethoxy-4′-fluorobiphenyl-4-yl)methyl]-2-oxo-1-oxa-3,8-diazaspiro[4.5]dec-3-yl}pyridine-4-carboxylic acid, TFA salt]  2.21 nM
19. Cc1cc(C(=O)O)ccc1N1CC2(CCN(Cc3cn(C(C)(C)C)nc3-c3ccc(F)c(F)c3F)CC2)OC1=O [Example 1-37, 4-(8-{[1-tert-Butyl-3-(2,3,4-trifluorophenyl)-1H-pyrazol-4-yl]methyl}-2-oxo-1-oxa-3,8-diazaspiro[4.5]dec-3-yl)-3-methylbenzoic acid, TFA salt]  1.59 nM
20. CCCn1cc(CN2CCC3(CC2)CN(c2ccc(C(=O)O)cc2)C(=O)O3)c2ccc(OC)cc21 [Example 6-20, 4-{8-[(6-Methoxy-1-propyl-1H-indol-3-yl)methyl]-2-oxo-1-oxa-3,8-diazaspiro[4.5]dec-3-yl}benzoic acid, TFA salt]  1.06 nM
21. COc1ccc2c(CN3CCC4(CC3)CN(c3ccc(C(=O)O)cc3)C(=O)O4)cn(C(C)C)c2c1 [Example 6-16, 4-(8-{[6-Methoxy-1-(propan-2-yl)-1H-indol-3-yl]methyl}-2-oxo-1-oxa-3,8-diazaspiro[4.5]dec-3-yl)benzoic acid, TFA salt]  0.851 nM
22. CCOc1ccc(-c2cc(F)c(F)cc2F)c(CN2CCC3(CC2)CN(c2ccc(C(=O)O)cc2)C(=O)O3)c1 [Example 4-1, 4-{8-[(4-Ethoxy-2′,4′,5′-trifluorobiphenyl-2-yl)methyl]-2-oxo-1-oxa-3,8-diazaspiro[4.5]dec-3-yl}benzoic acid, TFA salt]  0.793 nM
23. CCOc1cc(CN2CCC3(CC2)CN(c2ccc(C(=O)O)cc2C)C(=O)O3)c(-c2ccc(F)c(F)c2F)cc1C [Example 4-8, 4-{8-[(4-Ethoxy-2′,3′,4′-trifluoro-5-methylbiphenyl-2-yl)methyl]-2-oxo-1-oxa-3,8-diazaspiro[4.5]dec-3-yl}-3-methylbenzoic acid, TFA salt]  0.474 nM
24. CCOc1cc(CN2CCC3(CC2)CN(c2ccc(C(=O)O)cc2Cl)C(=O)O3)c(-c2ccc(F)c(F)c2F)cc1C [Example 4-22, 3-Chloro-4-{8-[(4-ethoxy-2′,3′,4′-trifluoro-5-methylbiphenyl-2-yl)methyl]-2-oxo-1-oxa-3,8-diazaspiro[4.5]dec-3-yl}benzoic acid, TFA salt]  0.468 nM
25. CCOc1cc(CN2CCC3(CC2)CN(c2ccc(C(=O)O)cc2)C(=O)O3)c(-c2ccc(F)c(F)c2F)cc1C [Example 4-7, 4-{8-[(4-Ethoxy-2′,3′,4′-trifluoro-5-methylbiphenyl-2-yl)methyl]-2-oxo-1-oxa-3,8-diazaspiro[4.5]dec-3-yl}benzoic acid, TFA salt]  0.409 nM
26. CCOc1cc(CN2CCC3(CC2)CN(c2ccc(C(=O)O)cc2)C(=O)O3)c(-n2cc(C)cn2)cc1C [Example 4-28, 4-{8-[5-Ethoxy-4-methyl-2-(4-methyl-1H-pyrazol-1-yl)benzyl]-2-oxo-1-oxa-3,8-diazaspiro[4.5]dec-3-yl}benzoic acid, TFA salt]  0.395 nM
27. CCOc1cc(CN2CCC3(CC2)CN(c2ccc(C(=O)O)cc2)C(=O)O3)cc2c(OC)ccc(Cl)c12 [Example 5-7, 4-{8-[(5-Chloro-4-ethoxy-8-methoxynaphthalen-2-yl)methyl]-2-oxo-1-oxa-3,8-diazaspiro[4.5]dec-3-yl}benzoic acid, TFA salt]  0.233 nM
28. CCOc1cc(CN2CCC3(CC2)CN(c2ccc(C(=O)O)cc2)C(=O)O3)c(-c2cc(F)c(F)cc2F)cc1C [Example 4-11, 4-{8-[(4-Ethoxy-2′,4′,5′-trifluoro-5-methylbiphenyl-2-yl)methyl]-2-oxo-1-oxa-3,8-diazaspiro[4.5]dec-3-yl}benzoic acid, TFA salt]  0.152 nM

— US8742110B2, “Spiroxazolidinone compounds” (Merck Sharp & Dohme Corp., priority 2010, dated 2014)
